pIC50: −log10 of the molar value.
Legend:
TPM3-TRKA fusion protein = biological target: T1, TPM3-TRKA fusion protein (Homo sapiens, UniProt P04629); assay: TPM3-TRKA fusion protein levels in KM12 cells (Western blot); assay type: cell-based; conditions: 16 h; TPM3-TRKA degradation in KM12 cells at 10 nM compound, category of percentage degradation; read-out: Degradation (at 10 nM)
T1 construct: The resulted chimeric proteins always retain the kinase domain of TRK proteins; TPM3 (fusion partner, N-terminal part of tropomyosin alpha-3, P06753); endogenous in cells; host or cells: KM12 colon cancer cells; the other entry of the earlier key: TPM3 (P06753, Tropomyosin alpha-3 chain)
How it was run: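 TPM3-TRKA levels were assessed by Western blot with chemiluminescent detection and band densitometry, after SDS-PAGE of BCA-normalized RIPA lysates. Before lysis, KM12 cells received DMSO, compounds or matched control compounds at concentrations including 0.1, 1, 10 and 100 nM and 0.4–30 nM. Exposures lasted 4 h, 8–16 h or 16 h.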

KM12 cells = assay: KM12 cell viability (CellTiter-Glo); assay type: cell-based; conditions: Homo sapiens, 72 h; KM12 cell viability, CellTiter-Glo, three days treatment; read-out: IC50
How it was run: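 Three-day exposure of KM12 cells (5000/well, RPMI 1640 with 10% FBS, 37 °C, 5% CO2) to compound dilution series, 3-fold over 8 or 11 points (top 1000 nM in the 8-point format) or 2-fold over 12. CellTiter-Glo readout, with IC50 fitted by nonlinear least-squares regression.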

[1] = tested on: KM12 subcutaneous xenograft tumors; assay: KM12 subcutaneous xenograft tumor growth; assay type: in vivo, Athymic nude mice; conditions: 10-20 mg/kg qd or bid via oral gavage (FIG. 15A-15B)
Procedure: Athymic nude mice bearing KM12 subcutaneous xenograft tumors at the right flank were intraperitoneally treated with vehicle or 25 mg/kg CPD-060 once per day (qd), twice per day (bid), or once every two days (q2d). Tumor volumes were assessed every two days and expressed as length×width×width/2. Body weights of experimental mice were also measured to assess the toxicity of compounds.
Athymic nude mice bearing KM12 subcutaneous xenograft tumors at the right flank were treated with vehicle, 10-20 mg/kg TR-181 or TR-198 once per day (qd), or twice per day (bid) via oral gavage. Tumor volumes were assessed every two days and expressed as length×width×width/2. Body weights of experimental mice were also measured to assess the toxicity of compounds.
Mice bearing KM12 xenograft tumors were treated with vehicle, TR-231 or TR-275 orally at 40 mg/kg, twice per day for 14 days. Tumor sizes were measured every two days and presented as volume=(length×width×width)/2. […]
All animal experiments were performed under protocols approved by the Institutional Animal Care and Use Committee (IACUC) of Cullgen. […] Tumor volumes were calculated as […]. For tumor growth assays, tumor sizes and body weight of mice were measured every 2 days. For pharmacodynamic studies, the levels of TPM3-TPKA in xenograft tumors was determined following a single dose of drug administration. […]

TRK-fusions = conditions: phase 2 results, cited from earlier work

T1 sequence (P04629 with tags, fused parts or gaps): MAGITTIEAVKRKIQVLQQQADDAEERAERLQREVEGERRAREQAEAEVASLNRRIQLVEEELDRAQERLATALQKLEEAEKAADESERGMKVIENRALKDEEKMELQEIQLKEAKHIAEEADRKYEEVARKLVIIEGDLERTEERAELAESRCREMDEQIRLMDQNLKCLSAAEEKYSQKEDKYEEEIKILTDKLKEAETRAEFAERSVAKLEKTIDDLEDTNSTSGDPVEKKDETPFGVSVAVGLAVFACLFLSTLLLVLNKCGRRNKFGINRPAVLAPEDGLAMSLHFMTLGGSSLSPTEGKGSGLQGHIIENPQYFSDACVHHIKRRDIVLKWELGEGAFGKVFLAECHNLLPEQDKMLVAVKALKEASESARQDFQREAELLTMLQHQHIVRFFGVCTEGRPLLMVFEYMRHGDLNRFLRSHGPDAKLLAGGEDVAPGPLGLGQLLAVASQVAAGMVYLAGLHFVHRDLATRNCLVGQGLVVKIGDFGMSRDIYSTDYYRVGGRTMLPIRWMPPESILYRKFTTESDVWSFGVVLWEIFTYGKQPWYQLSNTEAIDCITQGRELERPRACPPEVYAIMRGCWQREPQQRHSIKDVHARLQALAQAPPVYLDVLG

SMILES	percent degradation of TPM3-TRKA protein at 0.01 µM (TPM3-TRKA fusion protein) [%]	pIC50 (KM12 cells)	in vivo anti-tumor activity (tumor volume) [1]	patient remained progression-free at 1 year (TRK-fusions; at 1 year) [%]	patients responded to the therapy (TRK-fusions; patients with TRK-fusions) [%]
O=C1CCC(N2C(=O)c3ccc(NCCN4CCN(c5cccc(-c6cnc7ccc(N8CCC[C@@H]8c8cccc(F)c8)nn67)n5)CC4)cc3C2=O)C(=O)N1 (stereo partly drawn) [TR-181, 2-(2,6-dioxopiperidin-3-yl)-5-((2-(4-(6-(6-((R)-2˜ (3-fluorophenyl)pyrrolidin-1-yl)imidazo[1,2-b]pyridazin-3-yl)pyridin-2-yl)piperazin-1-yl)ethyl)amino) isoindoline-1,3-dione]	> 80	8.54	significant in vivo anti-tumor activity		
O=C1CCC(N2C(=O)c3ccc(N4CC(CN5CCN(c6cccc(-c7cnc8ccc(N9CCC[C@@H]9c9cccc(F)c9)nn78)n6)CC5)C4)cc3C2=O)C(=O)N1 (stereo partly drawn) [TR-198, 2-(2,6-dioxopiperidin-3-yl)-5-(3-((4-(6-(6-((R)-2-(3-fluorophenyl)pyrrolidin-1-yl)imidazo[1,2-b]pyridazin-3-yl)pyridin-2-yl)piperazin-1-yl)methyl)azetidin-1-yl)isoindoline-1,3-dione]	> 80		significant in vivo anti-tumor activity		
O=C(Nc1cnn2ccc(N3CCC[C@@H]3c3cc(F)ccc3F)nc12)N1CC[C@H](O)C1 [larotrectinib]				55	75

— patent publication US12410171B2, “Tropomyosin receptor kinase (TRK) degradation compounds and methods of use” (Cullgen (Shanghai), Inc., priority 2020, dated 2025)
